From patent US20160166701A1, “DELIVERY COMPOSITION FOR TOPICAL APPLICATIONS AND INJECTIONS AND OPHTHALMIC FORMULATIONS, METHODS FOR MANUFACTURING THEREOF, AND METHODS FOR DELIVERY OF A DRUG-DELIVERY COMPOSITION” (THERAKINE BIODELIVERY GMBH, priority 2013, published 2016)

Experiments:
[1] = test system: rabbits undergoing photorefractive keratectomy (PRK) surgery; test: Rabbit PRK study of canakinumab incorporated in the matrix formulation (Example 3); format: in vivo
Protocol: In Example 3, a further rabbit study, similar to the design of Example 2 above, was performed using Novartis's canakinumab, a fully human antibody against Il-1 beta, incorporated in the matrix formulation using hyaluronic acid microparticles enhancing corneal adherence.
Even though it is described that canakinumab does differ from rabbit IL-1 in one amino acid, this study was performed to study the adherence characteristics, pk, and safety/tolerability of EpiKine delivering a different Il-1 inhibitor.

[2] = test system: freshly isolated and subcultured corneal fibroblasts; test: α-SMA positive corneal fibroblasts in normal or serum-free media, confocal microscopy on day 4 (Example 4); format: cell-based, rabbit; conditions: serum-free media, 30 μg/mL, both subcultured and freshly isolated cells
Protocol: Since there is a variable amount of growth factors such as IL-1 in serum, the presence of serum may offset the effect of blocking IL-1 with the matrix formulation. In this experiment, freshly isolated and subcultured corneal fibroblasts (P2-P5) were seeded at a density of 5,000 cells/cm^2 and cultured with 30 μg/mL with human recombinant IL-1ra in either normal (NM) or Serum-Free (SF) media. Cells were analyzed on day 4 for levels of α-SMA with confocal microscopy. Cell numbers in serum-free samples were too low to recover enough protein for Western Blot analysis. 5 individuals independently counted 3 images of each of 3 samples per condition for α-SMA positive cells. Serum-free media induced lower α-SMA expression in freshly isolated cells but had no effect on subcultured cells. […] This finding supports that the phenotype of subcultured cells can be influenced by the matrix formulation.
Percentage of freshly isolated (FI) and subcultured (SC) RCFs expressing α-SMA as determined from confocal immunofluorescence on day 4 in the following conditions: normal media (NM), normal media with IL-1ra (NM+IL-1ra), serum-free (SF), and serum-free with IL-1ra (SF+IL-1ra). SF conditions decreased α-SMA levels in FI but not in SC cells. […] Data represents mean+/−standard error with n=3 (* indicate p<<0.001, θ indicate p<0.05, φ indicate p<0.005).

[3] = test system: rabbits undergoing photorefractive keratectomy (PRK) surgery; test: Rabbit photorefractive keratectomy (PRK) study of matrix formulation with IL-1ra versus steroid control (Example 2); format: in vivo; conditions: lower doses of IL-1ra and steroid group compared with higher dose of IL-1ra and control group, week 3; FIG. 6
Protocol: In Example 2; various concentrations of IL-1ra, i.e. 50 mg/ml or 2.5 mg/drop, 25 mg/ml or 1.25 mg/drop, and 5 mg/ml or 0.25 mg/drop (solutions A-C), were compared to a standard steroid control (fluorometholone) in rabbits undergoing photorefractive keratectomy (PRK) surgery. […] The final hyaluronic acid concentration (i.e. the hyaluronic acid concentration in the final matrix formulation) was 0.526% w/w, based on the total weight of the matrix formulation.
Each rabbit received PRK in both eyes at a 100 μm ablation depth. In each rabbit, the right eye (OD) served as the treated eye while the left eye (OS) served as control. […]
As before corneal clarity, forward scatter and haze measurement were used as out-come parameters. Haze formation and scattering was assessed via slit lamp exam by an ophthalmologist. The timing for re-epithelization to occur in both the treatment and control groups was measured.
In addition Pentacam technology was used to image the anterior segment of the eye via a rotating Scheimpflug process that supplied pictures in three dimensions, allowing for a precise measurement of the shape, thickness, and the contour of the cornea. Using this method, the center of the cornea, which is most critical for refractive surgery planning, is measured precisely because of this rotational imaging process. […]

[4] = test system: rabbits following photorefractive keratectomy (PRK); conditions: rabbit, in vivo; cited from earlier work
[5] = every data point, not statistically significant

Row | Compound | objective haze (HRT stromal haze) [1, 5] | α-SMA expression [2] | Pentacam density measurements [3] | serious adverse events such as infections or worsening infections [4] | epithelial closure ([1]; 1.25 mg concentration, within the canakinumab concentrations) | foam layer thickness (histologic analysis) ([1]; 2.5 mg and 1.25 mg concentration compared to 0.25 mg concentration) | objective haze (Pentacam) densitometry values ([1]; 2.5 mg concentration group, each time point) | corneal haze ([1]; 2.5 mg concentration, almost all data points, not statistically significant) | subjective haze (slit lamp exam) ([1]; 2.5 mg concentration, within the canakinumab concentrations) | objective haze (HRT stromal haze) ([1]; 2.5 mg, compared to control, week 2) | epithelial closure ([1]; all concentrations, compared to steroid and control group, not statistically significant) | adverse events ([1]; any of the concentrations, preliminary results) | subjective haze (slit lamp exam) ([1]; compared to the control group) | safety compared to steroids ([1]; time frame administered in this study) | subjective haze (slit lamp exam) ([1]; weeks 2, 4, 5, not statistically significant)
1 | CC(=O)[C@@]1(O)CC[C@H]2[C@@H]3C[C@H](C)C4=CC(=O)C=C[C@]4(C)[C@@]3(F)[C@@H](O)C[C@@]21C [Steroids, fluorometholone, reference compound] | least haze |  |  |  |  |  |  |  |  |  |  |  |  |  | 
2 | IL-1ra: IL-1ra is a biologic agent (protein) that blocks IL-1 |  | significantly decreased | statistically significant difference | No serious adverse events |  |  |  |  |  |  |  |  |  |  | 
3 | canakinumab | less haze than the control group |  |  |  | trend for faster closure | thinner foam layers | trend for lower densitometry values | trend towards lower corneal haze | trend for lower subjective haze values | statistically significant less haze | took longer to heal | No adverse events | as effective as steroids | non-inferior to steroids | lower haze
